# Measured values as given in ChEMBL document CHEMBL1155313, “Inhibitory effect of chalcones and their derivatives from Glycyrrhiza inflata on protein tyrosine phosphatase 1B” (Bioorg Med Chem Lett, 2009).
# Target: T1, Tyrosine-protein phosphatase non-receptor type 1 (Homo sapiens, UniProt P18031)
# T1 sequence (P18031 whole entry): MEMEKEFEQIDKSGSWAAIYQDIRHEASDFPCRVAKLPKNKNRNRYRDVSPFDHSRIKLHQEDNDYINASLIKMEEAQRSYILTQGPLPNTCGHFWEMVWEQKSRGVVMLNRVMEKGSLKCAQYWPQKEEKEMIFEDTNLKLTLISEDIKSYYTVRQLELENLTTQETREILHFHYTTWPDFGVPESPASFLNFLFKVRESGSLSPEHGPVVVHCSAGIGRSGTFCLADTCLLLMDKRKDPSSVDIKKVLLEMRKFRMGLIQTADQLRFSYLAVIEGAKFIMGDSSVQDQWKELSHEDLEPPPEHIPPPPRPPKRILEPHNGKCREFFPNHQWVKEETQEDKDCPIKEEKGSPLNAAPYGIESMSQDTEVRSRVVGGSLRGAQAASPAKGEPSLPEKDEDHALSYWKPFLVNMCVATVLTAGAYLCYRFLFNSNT
# Assay: Inhibition of recombinant human PTP1B assessed as hydrolysis of p-nitrophenyl phosphate after 30 mins
row,Compound,IC50
1,COc1c(/C=C/C(=O)c2ccc(O)cc2)ccc(O)c1CC=C(C)C,30.9 µM
2,C=CC(C)(C)c1cc(/C=C/C(=O)c2ccc(OC)cc2)c(OC)cc1O,11.7 µM
3,C=C(C)C(C)c1cc(/C=C/C(=O)c2ccc(O)cc2)c(OC)cc1O (centres undefined),20.7 µM
4,C=CC(C)(C)c1cc(/C=C/C(=O)c2ccc(OC)cc2)c(OC)cc1OC,19.8 µM
5,COc1cc(O)ccc1/C=C/C(=O)c1ccc(O)cc1 [ECHINATIN],> 50 µM
6,O=C(/C=C/c1ccc(O)cc1)c1ccc(O)cc1O [ISOLIQUIRITIGENIN],> 50 µM
7,C=CC(C)(C)c1cc(/C=C/C(=O)c2ccc(O)cc2)c(OC)cc1O [LICOAGROCHACONE A],19.1 µM
8,O=C1C[C@@H](c2ccc(O)cc2)Oc2cc(O)ccc21 [LIQUIRTIGENIN],> 50 µM

# Next, values leading:
row,IC50,Compound
1,19.4 µM,C=CC(C)(C)c1cc(/C=C/C(=O)c2ccc(OC)cc2)c(OC)cc1OC(C)=O
2,17.3 µM,C=CC(C)(C)c1cc(/C=C/C(=O)c2ccc(O)cc2)c(OC)cc1OC(C)=O
3,29.2 µM,C=CC(C)(C)c1cc(/C=C/C(=O)c2ccc(OC(C)=O)cc2)c(OC)cc1OC
4,18.3 µM,C=CC(C)(C)c1cc(/C=C/C(=O)c2ccc(O)cc2)c(OC)cc1OC
5,19.2 µM,C=CC(C)(C)c1cc(/C=C/C(=O)c2ccc(OC(C)=O)cc2)c(OC)cc1O
6,> 50 µM,C=CC(C)(C)c1cc(/C=C/C(=O)c2ccc(OC(C)=O)cc2)c(OC)cc1OC(C)=O
